Assays:
Test in all cases: cells
Details in all cases: Homo sapiens
SW982 = type: functional, cell-based;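 further: growth inhibition of SW982 cells, read out with a cell viability assay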
Description: SANGER: Inhibition of human SW982 cell growth in a cell viability assay.

OVCAR-8 = type: functional, cell-based;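 further: growth inhibition of human OVCAR-8 cells, read out by a cell viability assay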
Description: SANGER: Inhibition of human OVCAR-8 cell growth in a cell viability assay.

KINGS-1 = type: functional, cell-based;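 further: cell viability assay measuring suppression of KINGS-1 cell growth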
Description: SANGER: Inhibition of human KINGS-1 cell growth in a cell viability assay.

NCI-H1770 = type: functional, cell-based;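 further: growth inhibition of NCI-H1770 cells determined with a viability readout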
Description: SANGER: Inhibition of human NCI-H1770 cell growth in a cell viability assay.

LS-1034 = type: functional, cell-based
Description: SANGER: Inhibition of human LS-1034 cell growth in a cell viability assay.

C8166 = type: functional, cell-based;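 further: growth inhibition of human C8166 cells measured by a cell viability assay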
Description: SANGER: Inhibition of human C8166 cell growth in a cell viability assay.

LB2518-MEL = type: functional, cell-based;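 further: growth inhibition of human LB2518-MEL cells, measured with a cell viability assay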
Description: SANGER: Inhibition of human LB2518-MEL cell growth in a cell viability assay.

A704 = type: functional, cell-based;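 further: growth inhibition of human A704 cells, read out with a cell viability assay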
Description: SANGER: Inhibition of human A704 cell growth in a cell viability assay.

CPC-N = type: functional, cell-based;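 further: growth inhibition of CPC-N cells, with a cell viability assay as the readout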
Description: SANGER: Inhibition of human CPC-N cell growth in a cell viability assay.

NCI-H1299 = type: functional, cell-based;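 further: growth inhibition of human NCI-H1299 cells, read out by a cell viability assay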
Description: SANGER: Inhibition of human NCI-H1299 cell growth in a cell viability assay.

SF-126 = type: functional, cell-based;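 further: growth inhibition of human SF126 cells, read out with a cell viability assay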
Description: SANGER: Inhibition of human SF126 cell growth in a cell viability assay.

HC-1 = type: functional, cell-based;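 further: growth inhibition of HC-1 cells measured by a cell viability assay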
Description: SANGER: Inhibition of human HC-1 cell growth in a cell viability assay.

ML-2 = type: functional, cell-based;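 further: growth inhibition of ML-2 cells, measured with a cell viability readout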
Description: SANGER: Inhibition of human ML-2 cell growth in a cell viability assay.

NCI-H1563 = type: functional, cell-based;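 further: growth inhibition of human NCI-H1563 cells, read out with a cell viability assay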
Description: SANGER: Inhibition of human NCI-H1563 cell growth in a cell viability assay.

NCI-H2052 = type: functional, cell-based;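 further: growth inhibition of NCI-H2052 cells, read out with a cell viability assay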
Description: SANGER: Inhibition of human NCI-H2052 cell growth in a cell viability assay.

KYSE-450 = type: functional, cell-based;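 further: cell growth inhibition measured by a viability assay in human KYSE-450 cells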
Description: SANGER: Inhibition of human KYSE-450 cell growth in a cell viability assay.

QIMR-WIL = type: functional, cell-based;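 further: growth inhibition of QIMR-WIL cells, read out with a cell viability assay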
Description: SANGER: Inhibition of human QIMR-WIL cell growth in a cell viability assay.

Calu-6 = type: functional, cell-based;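 further: growth of human Calu-6 cells, read out by a cell viability assay, IC50 marking inhibition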
Description: SANGER: Inhibition of human Calu-6 cell growth in a cell viability assay.

JEG-3 = type: functional, cell-based;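 further: growth inhibition of human JEG-3 cells, read out with a cell viability assay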
Description: SANGER: Inhibition of human JEG-3 cell growth in a cell viability assay.

697 = type: functional, cell-based
Description: SANGER: Inhibition of human 697 cell growth in a cell viability assay.

KM-H2 = type: functional, cell-based;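 further: growth inhibition of KM-H2 cells, read out by a cell viability assay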
Description: SANGER: Inhibition of human KM-H2 cell growth in a cell viability assay.

SW 962 = type: functional, cell-based;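 further: growth inhibition of human SW962 cells, read out by a cell viability assay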
Description: SANGER: Inhibition of human SW962 cell growth in a cell viability assay.

SK-LMS-1 = type: functional, cell-based;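 further: growth inhibition of human SK-LMS-1 cells, read out with a cell viability assay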
Description: SANGER: Inhibition of human SK-LMS-1 cell growth in a cell viability assay.

ES6 = type: functional, cell-based;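 further: growth inhibition of human ES6 cells, read out with a cell viability assay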
Description: SANGER: Inhibition of human ES6 cell growth in a cell viability assay.

UMC-11 = type: functional, cell-based;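 further: growth inhibition of UMC-11 cells, read out with a cell viability assay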
Description: SANGER: Inhibition of human UMC-11 cell growth in a cell viability assay.

IST-SL1 = type: functional, cell-based;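 further: growth inhibition of human IST-SL1 cells, read out with a cell viability assay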
Description: SANGER: Inhibition of human IST-SL1 cell growth in a cell viability assay.

OCUB-M = type: functional, cell-based;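 further: growth inhibition of the cancer cell line, read out through a cell viability assay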
Description: SANGER: Inhibition of human OCUB-M cell growth in a cell viability assay.

NCI-H1155 = type: functional, cell-based;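 further: cell growth inhibition measured by a viability assay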
Description: SANGER: Inhibition of human NCI-H1155 cell growth in a cell viability assay.

no-11 = type: functional, cell-based;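 further: growth inhibition of human NO-11 cells, read out with a cell viability assay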
Description: SANGER: Inhibition of human no-11 cell growth in a cell viability assay.

RPMI-8866 = type: functional, cell-based
Description: SANGER: Inhibition of human RPMI-8866 cell growth in a cell viability assay.

DB = type: functional, cell-based
Description: SANGER: Inhibition of human DB cell growth in a cell viability assay.

KM12 = type: functional, cell-based;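 further: KM12 cell growth inhibition, read out with a cell viability assay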
Description: SANGER: Inhibition of human KM12 cell growth in a cell viability assay.

OCI-AML2 = type: functional, cell-based;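 further: growth inhibition of OCI-AML2 cells, read out with a cell viability assay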
Description: SANGER: Inhibition of human OCI-AML2 cell growth in a cell viability assay.

NCI-H1355 = type: functional, cell-based;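 further: growth inhibition of human NCI-H1355 cells, read out by a cell viability assay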
Description: SANGER: Inhibition of human NCI-H1355 cell growth in a cell viability assay.

A498 = type: functional, cell-based;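 further: growth inhibition of human A498 cells, read out with a cell viability assay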
Description: SANGER: Inhibition of human A498 cell growth in a cell viability assay.

SNB-75 = type: functional, cell-based;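 further: cell viability assay measuring growth inhibition of human SNB-75 cells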
Description: SANGER: Inhibition of human SNB75 cell growth in a cell viability assay.

LAN-6 = type: functional, cell-based;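 further: growth inhibition of LAN-6 cells, determined with a cell viability assay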
Description: SANGER: Inhibition of human LAN-6 cell growth in a cell viability assay.

SF-268 = type: functional, cell-based;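 further: growth inhibition of SF-268 cells determined with a cell viability assay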
Description: SANGER: Inhibition of human SF268 cell growth in a cell viability assay.

MDA-MB-157 = type: functional, cell-based
Description: SANGER: Inhibition of human MDA-MB-157 cell growth in a cell viability assay.

MKN-45 = type: functional, cell-based;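 further: growth inhibition of human MKN-45 cells, measured with a cell viability assay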
Description: SANGER: Inhibition of human MKN45 cell growth in a cell viability assay.

MV4-11 = type: functional, cell-based, MV-4-11;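 further: cell viability readout measuring growth inhibition of human MV-4-11 cells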
Description: SANGER: Inhibition of human MV-4-11 cell growth in a cell viability assay.

RS4-11 = type: functional, cell-based;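 further: growth inhibition of RS4-11 cells, read out by a cell viability assay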
Description: SANGER: Inhibition of human RS4-11 cell growth in a cell viability assay.

CP66-MEL = type: functional, cell-based;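 further: growth inhibition of CP66-MEL cells determined in a cell viability assay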
Description: SANGER: Inhibition of human CP66-MEL cell growth in a cell viability assay.

GB-1 = type: functional, cell-based;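 further: growth of GB-1 cells judged by a viability assay, IC50 marks the concentration inhibiting growth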
Description: SANGER: Inhibition of human GB-1 cell growth in a cell viability assay.

HH = type: functional, cell-based
Description: SANGER: Inhibition of human HH cell growth in a cell viability assay.

MHH-PREB-1 = type: functional, cell-based;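 further: cell viability assay measuring inhibition of proliferation of human MHH-PREB-1 cells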
Description: SANGER: Inhibition of human MHH-PREB-1 cell growth in a cell viability assay.

MDA-MB-453 = type: functional, cell-based
Description: SANGER: Inhibition of human MDA-MB-453 cell growth in a cell viability assay.

AM-38 = type: functional, cell-based;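 further: growth inhibition of AM-38 cells of human origin, read out by a cell viability assay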
Description: SANGER: Inhibition of human AM-38 cell growth in a cell viability assay.

NB13 = type: functional, cell-based;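 further: cell viability readout measuring growth inhibition of human NB13 cells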
Description: SANGER: Inhibition of human NB13 cell growth in a cell viability assay.

ECC4 = type: functional, cell-based;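 further: growth inhibition of ECC4 cells, read out with a cell viability assay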
Description: SANGER: Inhibition of human ECC4 cell growth in a cell viability assay.

COLO-684 = type: functional, cell-based
Description: SANGER: Inhibition of human COLO-684 cell growth in a cell viability assay.

MS-1 = type: functional, cell-based
Description: SANGER: Inhibition of human MS-1 cell growth in a cell viability assay.

MN-60 = type: functional, cell-based;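 further: growth inhibition of the MN-60 cell line, determined with a cell viability assay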
Description: SANGER: Inhibition of human MN-60 cell growth in a cell viability assay.

HD-MY-Z = type: functional, cell-based;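 further: growth inhibition of HD-MY-Z cells, read out with a cell viability assay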
Description: SANGER: Inhibition of human HD-MY-Z cell growth in a cell viability assay.

UACC-893 = type: functional, cell-based
Description: SANGER: Inhibition of human UACC-893 cell growth in a cell viability assay.

HuTu80 = type: functional, cell-based, HUTU-80;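 further: growth inhibition of HuTu80 human cells, determined with a cell viability readout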
Description: SANGER: Inhibition of human HUTU-80 cell growth in a cell viability assay.

SNU1 = type: functional, cell-based;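 further: growth inhibition of human NCI-SNU-1 cells, measured with a cell viability assay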
Description: SANGER: Inhibition of human NCI-SNU-1 cell growth in a cell viability assay.

ES1 = type: functional, cell-based
Description: SANGER: Inhibition of human ES1 cell growth in a cell viability assay.

TE-12 = type: functional, cell-based
Description: SANGER: Inhibition of human TE-12 cell growth in a cell viability assay.

GAK = type: functional, cell-based
Description: SANGER: Inhibition of human GAK cell growth in a cell viability assay.

RPMI-8226 = type: functional, cell-based
Description: SANGER: Inhibition of human RPMI-8226 cell growth in a cell viability assay.

RCC10RGB = type: functional, cell-based
Description: SANGER: Inhibition of human RCC10RGB cell growth in a cell viability assay.

JAR = type: functional, cell-based
Description: SANGER: Inhibition of human JAR cell growth in a cell viability assay.

LB831-BLC = type: functional, cell-based
Description: SANGER: Inhibition of human LB831-BLC cell growth in a cell viability assay.

NCI-H1838 = type: functional, cell-based
Description: SANGER: Inhibition of human NCI-H1838 cell growth in a cell viability assay.

EOL1 = type: functional, cell-based
Description: SANGER: Inhibition of human EoL-1-cell cell growth in a cell viability assay.

CO[C@@]12[C@H](COC(N)=O)C3=C(C(=O)C(C)=C(N)C3=O)N1C[C@@H]1N[C@@H]12 [MITOMYCIN]
IC50 (SW982): 0.105 µM | IC50 (OVCAR-8): 0.176 µM | IC50 (KINGS-1): 8.61 µM | IC50 (NCI-H1770): 0.343 µM | IC50 (LS-1034): 0.0302 µM | IC50 (C8166): 0.932 µM | IC50 (LB2518-MEL): 0.535 µM | IC50 (A704): 2.38 µM | IC50 (CPC-N): 0.381 µM | IC50 (NCI-H1299): 0.218 µM | IC50 (SF-126): 1.41 µM | IC50 (HC-1): 0.157 µM | IC50 (ML-2): < 0.0625 µM | IC50 (NCI-H1563): 1.43 µM | IC50 (NCI-H2052): 1.99 µM | IC50 (KYSE-450): 0.563 µM | IC50 (QIMR-WIL): 0.12 µM | IC50 (Calu-6): 0.32 µM | IC50 (JEG-3): 2.23 µM | IC50 697: < 0.0625 µM | IC50 (KM-H2): 0.13 µM | IC50 (SW 962): 0.158 µM | IC50 (SK-LMS-1): 0.439 µM | IC50 (ES6): 0.746 µM | IC50 (UMC-11): 0.567 µM | IC50 (IST-SL1): 1.45 µM | IC50 (OCUB-M): 0.103 µM | IC50 (NCI-H1155): 0.873 µM | IC50 (no-11): 7.74 µM | IC50 (RPMI-8866): 1.32 µM | IC50 (DB): 0.43 µM | IC50 (KM12): 1.08 µM | IC50 (OCI-AML2): < 0.0625 µM | IC50 (NCI-H1355): 0.117 µM | IC50 (A498): > 16 µM | IC50 (SNB-75): 0.303 µM | IC50 (LAN-6): 0.328 µM | IC50 (SF-268): 0.171 µM | IC50 (MDA-MB-157): 2.19 µM | IC50 (MKN-45): 0.165 µM | IC50 (MV4-11): < 0.0625 µM | IC50 (RS4-11): 0.0349 µM | IC50 (CP66-MEL): 0.645 µM | IC50 (GB-1): 0.452 µM | IC50 (HH): 1.07 µM | IC50 (MHH-PREB-1): 3.15 µM | IC50 (MDA-MB-453): 1.08 µM | IC50 (AM-38): 0.221 µM | IC50 (NB13): 0.646 µM | IC50 (ECC4): 5.07 µM | IC50 (COLO-684): 0.799 µM | IC50 (MS-1): 0.344 µM | IC50 (MN-60): 1.26 µM | IC50 (HD-MY-Z): 0.64 µM | IC50 (UACC-893): 0.418 µM | IC50 (HuTu80): < 0.0625 µM | IC50 (SNU1): 0.156 µM | IC50 (ES1): < 0.0625 µM | IC50 (TE-12): 0.19 µM | IC50 (GAK): 0.596 µM | IC50 (RPMI-8226): 1.24 µM | IC50 (RCC10RGB): 1.35 µM | IC50 (JAR): 4.56 µM | IC50 (LB831-BLC): 0.816 µM | IC50 (NCI-H1838): 0.404 µM | IC50 (EOL1): 0.162 µM

N#C/C(=C1/Nc2ccccc2S1)c1ccnc(NCCc2cccnc2)n1
IC50 (SW982): 1.78 µM | IC50 (OVCAR-8): > 8 µM | IC50 (KINGS-1): > 8 µM | IC50 (NCI-H1770): > 8 µM | IC50 (LS-1034): > 8 µM | IC50 (C8166): 4.47 µM | IC50 (LB2518-MEL): > 8 µM | IC50 (A704): > 8 µM | IC50 (CPC-N): > 8 µM | IC50 (NCI-H1299): 4.78 µM | IC50 (SF-126): > 8 µM | IC50 (HC-1): > 8 µM | IC50 (ML-2): > 8 µM | IC50 (NCI-H1563): > 8 µM | IC50 (NCI-H2052): > 8 µM | IC50 (KYSE-450): 1.14 µM | IC50 (QIMR-WIL): > 8 µM | IC50 (Calu-6): > 8 µM | IC50 (JEG-3): > 8 µM | IC50 697: > 8 µM | IC50 (KM-H2): > 8 µM | IC50 (SW 962): > 8 µM | IC50 (SK-LMS-1): 7.38 µM | IC50 (ES6): 4.72 µM | IC50 (UMC-11): > 8 µM | IC50 (IST-SL1): > 8 µM | IC50 (OCUB-M): 1.08 µM | IC50 (NCI-H1155): > 8 µM | IC50 (no-11): > 8 µM | IC50 (RPMI-8866): > 8 µM | IC50 (DB): > 8 µM | IC50 (KM12): > 8 µM | IC50 (OCI-AML2): 4.65 µM | IC50 (NCI-H1355): 1.11 µM | IC50 (A498): > 8 µM | IC50 (SNB-75): 5.27 µM | IC50 (LAN-6): > 8 µM | IC50 (SF-268): > 8 µM | IC50 (MDA-MB-157): 7.07 µM | IC50 (MKN-45): > 8 µM | IC50 (MV4-11): 1.43 µM | IC50 (RS4-11): 3.93 µM | IC50 (CP66-MEL): > 8 µM | IC50 (GB-1): > 8 µM | IC50 (HH): > 8 µM | IC50 (MHH-PREB-1): > 8 µM | IC50 (MDA-MB-453): > 8 µM | IC50 (AM-38): > 8 µM | IC50 (NB13): > 8 µM | IC50 (ECC4): > 8 µM | IC50 (COLO-684): > 8 µM | IC50 (MS-1): > 8 µM | IC50 (MN-60): > 8 µM | IC50 (HD-MY-Z): > 8 µM | IC50 (UACC-893): > 8 µM | IC50 (HuTu80): > 8 µM | IC50 (SNU1): > 8 µM | IC50 (ES1): > 8 µM | IC50 (TE-12): 1.4 µM | IC50 (GAK): 6.74 µM | IC50 (RPMI-8226): > 8 µM | IC50 (RCC10RGB): > 8 µM | IC50 (JAR): > 8 µM | IC50 (LB831-BLC): 5.69 µM | IC50 (NCI-H1838): > 8 µM | IC50 (EOL1): 2.49 µM
